# Measurements from publication PMC3955700 (Bioorganic & medicinal chemistry letters, 2013).
# System: brain / choroid plexus uptake
# Assay: PET imaging in cynomolgus monkey
# Type: in vivo
smiles,measurement,setting,value
"Cl.O=C(Cc1ccc(OC2CCNCC2)cc1OCCF)N1CCC(N2C(=O)CCc3ccccc32)CC1 [Compound 1, 1-(1-(2-(2-(2-fluoroethoxy)-4-(piperidin-4-yloxy)phenyl)acetyl)piperidin-4-yl)-3,4-dihydroquinolin-2(1H)-one]",effect of blocking on [18F]1 uptake,5 mg/kg of 1 given 30 min prior to [18F]1,"increase of overall brain activity, primarily in the region of the choroid plexus"
same,effect of chase on [18F]1 choroid plexus uptake,5 mg/kg of 1 given 45 min after [18F]1,uptake within the choroid plexus was completely removed
